{"source": "patent US12268725B2", "about": "“Composition of BL-8040” (BioLineRx Ltd., priority 2020, dated 2025)", "system": "neutrophil migration to peripheral blood", "assay": "In vivo neutrophil migration to peripheral blood after injection", "conditions": "mice, single subcutaneous dose of 5 mg/kg BL-8040 in 200 μl PBS, bled 2 hours after injection, flow cytometry of mature neutrophils, increase relative to control mice", "method": "In some of any of the respective embodiments, promotion of in vivo neutrophil migration to peripheral blood is determined by subcutaneously injecting mice with 5 mg/kg of BL-8040 (SEQ ID NO: 1), reconstituted in 200 μl of PBS, then bleeding the mice 2 hours after injection (e.g., by cardiac puncture into tubes with heparin) and quantifying the number of mature neutrophils in the peripheral blood (e.g., by flow cytometry) relative to control (untreated) mice.\nBL-8040 (SEQ ID NO: 1) is an antagonist of the CXCR4 chemokine receptor. The induction of the cellular activity mediated by CXCR4 is responsible for the attachment of white blood cells to the bone marrow stromal cells. Inhibition of the CXCR4 activity (e.g., by BL-8040 (SEQ ID NO: 1)) is therefore expected to induce the detachment of the white blood cells (which include but are not limited to neutrophils) from the bone marrow stroma, and the subsequent migration of the cells to the peripheral blood. […]\nMice were subcutaneously injected with a single dose of 5 mg/kg of BL-8040 (SEQ ID NO: 1), reconstituted in 200 μl of PBS. […] Flow cytometry was used to evaluate the number of mature neutrophils in the peripheral blood, and the increase relative to control mice was calculated.", "note": "Bridge positions count the residues as written; N and C are the ends. Square brackets hold non-standard residues; d marks the D form. * marks the point of attachment. 2Nal = N[C@@H](Cc1ccc2ccccc2c1)C(=O)O; Benzoyl(4-F) = O=C(c1ccc(F)cc1)*; Cit = NC(=O)NCCC[C@H](N)C(=O)O", "data": [{"substance": "Reference Example 1: BL-8040 prepared on Rink amide resin with HOBt/TBTU coupling and iodine cyclization; lacks the RRT 0.87 and 0.72 compounds ({Benzoyl(4-F)}-RR[2Nal]CY[Cit]K[dK]PYR[Cit]CR-NH2; disulfide 4-13 (inferred))", "values": [{"measurement": "Fold increase in neutrophil number", "value": 5.6}]}]}
